In patent US20260138990A1, “TRICYCLIC FUSED IMIDAZOLE COMPOUNDS AS CD38 MODULATORS AND USES THEREOF” (AEOVIAN PHARMACEUTICALS, INC., priority 2023, published 2026) one finds IC50 data, which are given here for 22 compounds.

One assay deals with T1, mouse CD38 (Mus musculus, UniProt P56528).
T1 construct: purchased Bio-Techne GmbH 4947-AC
T1 sequence (P56528 1-304): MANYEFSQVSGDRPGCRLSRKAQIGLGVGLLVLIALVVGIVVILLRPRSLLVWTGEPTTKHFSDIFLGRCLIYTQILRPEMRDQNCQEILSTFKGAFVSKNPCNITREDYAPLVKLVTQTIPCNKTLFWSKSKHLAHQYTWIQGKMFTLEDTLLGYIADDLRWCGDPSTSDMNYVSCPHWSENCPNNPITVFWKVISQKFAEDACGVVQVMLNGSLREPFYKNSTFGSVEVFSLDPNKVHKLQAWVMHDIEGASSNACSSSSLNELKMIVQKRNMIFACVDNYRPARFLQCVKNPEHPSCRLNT
In words: NAD+ cyclase activity assay with mouse recombinant CD38 protein (ε-NAD fluorescence). Type of assay: biochemical. As to conditions: 0.6 nM mouse CD38, substrate ε-NAD, 30 min preincubation, fluorescence 300/410 nm. The method in brief:
(§1)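 Twelve-point threefold compound dilutions were given 30 min at room temperature with 0.6 nM mouse or 1.9 nM human CD38 before […] ε-NAD was added (pH 7.5 HEPES/sucrose/Tween buffer). The rate came from the linear-phase slope of ex 300/em 410 nm fluorescence against vehicle and no-CD38 controls.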

For a further assay, the target named is T2, human CD38 (Homo sapiens, UniProt P28907).
T2 construct: purchased Bio-Techne GmbH AVI2404
T2 sequence (P28907 1-300): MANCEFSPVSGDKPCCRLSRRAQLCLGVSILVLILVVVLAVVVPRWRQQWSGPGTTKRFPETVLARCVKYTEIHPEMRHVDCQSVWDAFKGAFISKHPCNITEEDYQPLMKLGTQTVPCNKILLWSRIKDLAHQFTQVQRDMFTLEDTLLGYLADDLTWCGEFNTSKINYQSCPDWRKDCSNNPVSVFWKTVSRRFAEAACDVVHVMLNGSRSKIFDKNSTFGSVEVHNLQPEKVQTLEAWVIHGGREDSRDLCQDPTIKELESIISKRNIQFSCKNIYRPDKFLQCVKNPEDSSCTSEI
Kind of assay: NAD+ cyclase activity assay with human recombinant CD38 protein (ε-NAD fluorescence). In kind it is biochemical. The conditions noted are these: 1.9 nM human CD38, substrate ε-NAD, 30 min preincubation, fluorescence 300/410 nm. The gist of the method: as §1

Structures can show the parent of a compound that is named as a salt. Where only a bound is given, the exact number is not on record here.

For `CC1(F)CC(NC(=O)c2ccc3c(c2)-c2cncn2CCO3)C1` (centres unmarked) [Compound 136A, N-(3-Fluoro-3-methylcyclobutyl)-5,6-dihydrobenzo[f]imidazo[1,5-d][1,4]oxazepine-10-carboxamide], the IC50 – broadly, the concentration needed to halve the response being measured – was 1 to 10 nM on mouse CD38 and 30 to 100 nM on human CD38.

As for `O=C(Nc1cnc(N2CC(F)(F)C2)nc1)c1ccc2c(c1)-c1cncn1CCO2` [Compound 99A, N-(2-(3,3-Difluoroazetidin-1-yl)pyrimidin-5-yl)-5,6-dihydrobenzo[f]imidazo[1,5-d][1,4]oxazepine-10-carboxamide], the IC50 at mouse CD38 was 10 to 100 nM; at human CD38, under 30 nM.

Regarding `O=C(Nc1ccc2c(c1)CNC2)c1ccc2c(c1)-c1cncn1CCO2` [Compound 24A, N-(Isoindolin-5-yl)-5,6-dihydrobenzo[f]imidazo[1,5-d][1,4]oxazepine-10-carboxamide hydrochloride], the results for the IC50 at mouse CD38 and at human CD38 were 10 to 100 nM and 30 to 100 nM, respectively.

As to `O=C(N[C@H]1CC[C@@H](N2CCC(F)(F)C2)CC1)c1ccc2c(c1)-c1cncn1CCO2` [Compound 69A, N-((1s,4s)-4-(3,3-Difluoropyrrolidin-1-yl)cyclohexyl)-5,6-dihydrobenzo[f]imidazo[1,5-d][1,4]oxazepine-10-carboxamide], the values for the IC50 at mouse CD38 and on human CD38 were 10 to 100 nM and 100 to 1000 nM, respectively.

On to `O=C(NC1CCCC(C(F)(F)F)C1)c1ccc2c(c1)-c1cncn1CCO2` (centres unmarked) [Compound 151A, N-(3-(Trifluoromethyl)cyclohexyl)-5,6-dihydrobenzo[f]imidazo[1,5-d][1,4]oxazepine-10-carboxamide], for which the IC50 is 1 to 10 nM at mouse CD38 and under 30 nM at human CD38.

As for `O=C(Nc1cnc2c(c1)OCCO2)c1cc(Cl)c2c(c1)-c1cncn1CCO2` [Compound 129A, 8-Chloro-N-(2,3-dihydro-[1,4]dioxino[2,3-b]pyridin-7-yl)-5,6-dihydrobenzo[f]imidazo[1,5-d][1,4]oxazepine-10-carboxamide], the IC50 at mouse CD38 was 1 to 10 nM; at human CD38, under 30 nM.

Regarding `O=C(N[C@H]1CC[C@@H](OCC(F)(F)F)CC1)c1ccc2c(c1)-c1cncn1CCO2` [Compound 123A, N-((1s,4s)-4-(2,2,2-Trifluoroethoxy)cyclohexyl)-5,6-dihydrobenzo[f]imidazo[1,5-d][1,4]oxazepine-10-carboxamide], the values for the IC50 on mouse CD38 and at human CD38 were 10 to 100 nM and 100 to 1000 nM, respectively.

For the compound `COCCO[C@H]1CC[C@H](NC(=O)c2cc(Cl)c3c(c2)-c2cncn2CCO3)CC1` [Compound 94A, 8-Chloro-N-((1r,4r)-4-(2-methoxyethoxy)cyclohexyl)-5,6-dihydrobenzo[f]imidazo[1,5-d][1,4]oxazepine-10-carboxamide], the IC50 is under 1 nM on mouse CD38 and under 30 nM at human CD38.

Consider `O=C(NC1CC2(COC2)C1)c1cc(F)c2c(c1)-c1cncn1CCO2` [Compound 160A, 8-Fluoro-N-(2-oxaspiro[3.3]heptan-6-yl)-5,6-dihydrobenzo[f]imidazo[1,5-d][1,4]oxazepine-10-carboxamide], for which the results for the IC50 at mouse CD38 and on human CD38 were 1 to 10 nM and 30 to 100 nM, respectively.

For `COCCC(=O)N[C@H]1CC[C@H](NC(=O)c2ccc3c(c2)-c2cncn2CCO3)CC1` [Compound 67A, N-((1r,4r)-4-(3-Methoxypropanamido)cyclohexyl)-5,6-dihydrobenzo[f]imidazo[1,5-d][1,4]oxazepine-10-carboxamide], the IC50 fell in the range of 1 to 10 nM at mouse CD38 and 100 to 1000 nM on human CD38.

In the case of `O=C(Nc1ccc2c(c1)CCS2(=O)=O)c1ccc2c(c1)-c1cncn1CCO2` [Compound 19A, N-(1,1-Dioxido-2,3-dihydrobenzo[b]thiophen-5-yl)-5,6-dihydrobenzo[f]imidazo[1,5-d][1,4]oxazepine-10-carboxamide], the IC50 at mouse CD38 was under 1 nM; at human CD38, under 30 nM.

Turning to `O=C(N[C@H]1CC[C@H](CO)CC1)c1ccc2c(c1)-c1cncn1CCO2` [Compound 65A, N-((1r,4r)-4-(Hydroxymethyl)cyclohexyl)-5,6-dihydrobenzo[f]imidazo[1,5-d][1,4]oxazepine-10-carboxamide], the IC50 at mouse CD38 was under 1 nM; on human CD38, under 30 nM.

`O=C(NC1CCCC(C(F)(F)F)C1)c1cc(F)c2c(c1)-c1cncn1CCO2` (centres unmarked) [Compound 161A, 8-Fluoro-N-(3-(trifluoromethyl)cyclohexyl)-5,6-dihydrobenzo[f]imidazo[1,5-d][1,4]oxazepine-10-carboxamide]: the IC50 at mouse CD38 is 1 to 10 nM; on human CD38 it was under 30 nM.

With “N-((1r,4r)-4-((Tetrahydrofuran-2-yl)methoxy)cyclohexyl)-5,6-dihydrobenzo[f]imidazo[1,5-d][1,4]oxazepine-10-carboxamide [Compound 76A]”, the figures for the IC50 on mouse CD38 and at human CD38 were 1 to 10 nM and under 30 nM, respectively.

For `O=C(Nc1cnc2scnc2c1)c1ccc2c(c1)-c1cncn1CCO2` [Compound 40A, N-(Thiazolo[5,4-b]pyridin-6-yl)-5,6-dihydrobenzo[f]imidazo[1,5-d][1,4]oxazepine-10-carboxamide], the IC50 at mouse CD38 is 1 to 10 nM; on human CD38, under 30 nM.

On to `CO[C@H]1CC[C@H](NC(=O)c2ccc3c(c2)-c2cncn2CCO3)CC1` [Compound 20A, N-((1r,4r)-4-Methoxycyclohexyl)-5,6-dihydrobenzo[f]imidazo[1,5-d][1,4]oxazepine-10-carboxamide], for which the IC50 at mouse CD38 was under 1 nM; at human CD38 it was under 30 nM.

As for `O=C(Nc1cnc(OCCC(F)F)nc1)c1ccc2c(c1)-c1cncn1CCO2` [Compound 103A, N-(2-(3,3-Difluoropropoxy)pyrimidin-5-yl)-5,6-dihydrobenzo[f]imidazo[1,5-d][1,4]oxazepine-10-carboxamide], the figures for the IC50 on mouse CD38 and on human CD38 were 1 to 10 nM and under 30 nM, respectively.

Turning to `O=C(N[C@H]1CC[C@@H](OCC2(C(F)(F)F)CC2)CC1)c1ccc2c(c1)-c1cncn1CCO2` [Compound 118A, N-((1s,4s)-4-((1-(Trifluoromethyl)cyclopropyl)methoxy)cyclohexyl)-5,6-dihydrobenzo[f]imidazo[1,5-d][1,4]oxazepine-10-carboxamide], the IC50 was over 100 nM on mouse CD38 and over 1000 nM at human CD38.

Consider `COCCOc1ncc(NC(=O)c2ccc3c(c2)-c2cncn2CCO3)cn1` [Compound 81A, N-(2-(2-Methoxyethoxy)pyrimidin-5-yl)-5,6-dihydrobenzo[f]imidazo[1,5-d][1,4]oxazepine-10-carboxamide], for which the IC50 is 1 to 10 nM at mouse CD38 and under 30 nM at human CD38.

In the case of `C[C@@H](N[C@H]1CC[C@H](NC(=O)c2ccc3c(c2)-c2cncn2CCO3)CC1)C(F)(F)F` [Compound 74A, N-((1r,4r)-4-(((R)-1,1,1-Trifluoropropan-2-yl)amino)cyclohexyl)-5,6-dihydrobenzo[f]imidazo[1,5-d][1,4]oxazepine-10-carboxamide], the IC50 was 1 to 10 nM on mouse CD38 and 30 to 100 nM on human CD38.

With `O=C(N[C@H]1CC[C@H](O[C@H]2C[C@H](F)C2)CC1)c1ccc2c(c1)-c1cncn1CCO2` [Compound 148A, N-((1r,4r)-4-((1r,3r)-3-Fluorocyclobutoxy)cyclohexyl)-5,6-dihydrobenzo[f]imidazo[1,5-d][1,4]oxazepine-10-carboxamide], the IC50 on mouse CD38 is 1 to 10 nM; on human CD38, under 30 nM.

For the compound `O=C(NC1CC2(CCC2)C1)c1cc(F)c2c(c1)-c1cncn1CCO2` [Compound 159A, 8-Fluoro-N-(spiro[3.3]heptan-2-yl)-5,6-dihydrobenzo[f]imidazo[1,5-d][1,4]oxazepine-10-carboxamide], the IC50 at mouse CD38 is under 1 nM; on human CD38, under 30 nM.
